In experiment [1] the target is Protein cereblon/Tyrosine-protein kinase BTK (Homo sapiens, UniProt Q06187+Q96SW2). The experiment is described as follows: Protac activity at CRBN/BTK in human MOLM-14 cells assessed as induction of BTK degradation incubated for 24 hrs by Western blot analysis. It counts as cell-based. A general note: A western blot detects proteins with antibodies after separation by electrophoresis.

The next experiment concerns MOLM-14. As to the kind of experiment: Cytotoxicity against human MOLM-14 cells assessed as inhibition of cell growth incubated for 72 hrs by alamar blue assay. It counts as functional, cell-based. The note with it: MOLM-14, 72 h.
In experiment [2] the target is E3 ubiquitin-protein ligase Mdm2 (Homo sapiens, UniProt Q00987). The experiment is described as follows: Binding affinity to human MDM2 assessed as inhibition constant by competitive binding based fluorescence polarization analysis. On the technique in general: In fluorescence polarisation assays a small probe gives low polarisation when free and higher when bound to something large.

A further experiment concerns A549. The experiment is described as follows: Antiproliferative activity against human A549 cells assessed as cell growth inhibition measured after 72 hrs by CCK-8 assay. The note with it: A549, 72 h. It counts as functional, cell-based. A general note: Formazan colour is commonly taken as a measure of viable cells.

Chain of Protein cereblon/Tyrosine-protein kinase BTK (Q06187 whole entry): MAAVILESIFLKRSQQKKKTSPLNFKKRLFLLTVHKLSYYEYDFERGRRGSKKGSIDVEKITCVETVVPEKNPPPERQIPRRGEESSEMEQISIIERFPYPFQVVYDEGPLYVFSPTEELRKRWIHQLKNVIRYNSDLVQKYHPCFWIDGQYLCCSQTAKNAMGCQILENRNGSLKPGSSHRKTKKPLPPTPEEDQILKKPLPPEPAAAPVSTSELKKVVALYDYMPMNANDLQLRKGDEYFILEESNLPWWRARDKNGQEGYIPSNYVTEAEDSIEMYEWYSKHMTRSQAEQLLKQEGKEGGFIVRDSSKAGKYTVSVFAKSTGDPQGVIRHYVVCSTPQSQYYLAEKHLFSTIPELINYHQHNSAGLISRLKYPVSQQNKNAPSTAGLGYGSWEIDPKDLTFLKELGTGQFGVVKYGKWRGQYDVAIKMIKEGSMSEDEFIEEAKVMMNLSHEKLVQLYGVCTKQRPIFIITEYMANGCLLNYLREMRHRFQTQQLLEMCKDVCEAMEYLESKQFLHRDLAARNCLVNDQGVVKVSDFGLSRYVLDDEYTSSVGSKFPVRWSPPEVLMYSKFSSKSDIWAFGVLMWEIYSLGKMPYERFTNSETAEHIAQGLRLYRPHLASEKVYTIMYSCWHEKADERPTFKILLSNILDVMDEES
Chain of Protein cereblon/Tyrosine-protein kinase BTK (Q96SW2 whole entry): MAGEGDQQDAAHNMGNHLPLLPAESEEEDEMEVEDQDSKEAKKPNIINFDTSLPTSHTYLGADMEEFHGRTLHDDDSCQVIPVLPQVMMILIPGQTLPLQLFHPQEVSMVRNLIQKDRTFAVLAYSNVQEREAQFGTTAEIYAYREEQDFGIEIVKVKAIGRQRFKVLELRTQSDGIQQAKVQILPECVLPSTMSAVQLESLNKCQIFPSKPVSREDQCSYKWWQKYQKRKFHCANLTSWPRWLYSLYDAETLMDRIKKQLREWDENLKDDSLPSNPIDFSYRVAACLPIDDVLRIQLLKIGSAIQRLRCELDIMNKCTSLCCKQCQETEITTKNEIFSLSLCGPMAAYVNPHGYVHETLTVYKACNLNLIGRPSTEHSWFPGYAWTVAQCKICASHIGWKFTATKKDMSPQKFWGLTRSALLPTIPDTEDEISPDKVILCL
Chain of E3 ubiquitin-protein ligase Mdm2 (Q00987 whole entry): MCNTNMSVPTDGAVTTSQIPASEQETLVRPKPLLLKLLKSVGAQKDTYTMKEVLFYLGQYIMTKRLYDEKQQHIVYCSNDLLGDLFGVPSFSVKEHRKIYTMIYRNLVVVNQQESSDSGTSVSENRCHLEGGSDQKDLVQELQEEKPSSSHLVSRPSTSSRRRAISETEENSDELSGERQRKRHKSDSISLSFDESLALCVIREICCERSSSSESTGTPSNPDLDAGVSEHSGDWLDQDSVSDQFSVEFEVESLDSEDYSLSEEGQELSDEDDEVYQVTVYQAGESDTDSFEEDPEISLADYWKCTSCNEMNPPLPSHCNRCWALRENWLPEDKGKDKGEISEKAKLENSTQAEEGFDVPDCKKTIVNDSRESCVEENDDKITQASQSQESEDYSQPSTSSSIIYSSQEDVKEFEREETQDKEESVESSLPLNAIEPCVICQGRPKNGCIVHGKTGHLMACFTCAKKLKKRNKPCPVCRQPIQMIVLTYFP

A word on the EC50: it is the concentration at which the effect is half-maximal. In general, IC50 refers to the concentration that gives 50% inhibition. On to `CN(CCCNC(=O)CNc1cccc2c1C(=O)N(C1CCC(=O)NC1=O)C2=O)C(C)(C)C=C(C#N)C(=O)N1CCC[C@@H](n2nc(-c3ccc(Oc4ccccc4)cc3)c3c(N)ncnc32)C1` (some centres undefined), for which the EC50 in experiment [1] was 6.6 nM. The IC50 in the experiment on MOLM-14 worked out at 300 nM.
Usually Ki stands for the equilibrium dissociation constant of an inhibitor or competing ligand from its target. For the molecule `CCOc1cc(C(C)(C)C)ccc1C1=NC(c2ccc(Cl)cc2)C(c2ccc(Cl)cc2)N1C(=O)N1CCN(CC(=O)NCCOCCOCCOCCNC(=O)CN2CCN(C(=O)N3C(c4ccc(C(C)(C)C)cc4OCC)=NC(c4ccc(Cl)cc4)C3c3ccc(Cl)cc3)CC2=O)C(=O)C1` (centres undefined), the Ki in experiment [2] was 100 nM. Besides, the IC50 in the experiment with A549 was 1000 nM.

(Values after ChEMBL document CHEMBL5126527, “Emerging targeted protein degradation tools for innovative drug discovery: From classical PROTACs to the novel and beyond” (Eur J Med Chem, 2022).)
